From the NIST ThermoML archive (doi:10.1021/acs.jced.6b00542)

What was measured:
[1] = for speed of sound: 100 kPa, Frequency=3 MHz, Sing-around technique in a fixed-path interferometer; for speed of sound / viscosity / mass density: Liquid; for viscosity / mass density: 102 kPa; for viscosity: Concentric cylinders viscometry; for mass density: Vibrating tube method; for surface tension liquid-gas: Pendant drop shape
[2] = xn = mol fraction of the nth substance listed; conditions: Liquid; for speed of sound: 100 kPa, Frequency=3 MHz, Sing-around technique in a fixed-path interferometer; for viscosity / mass density: 102 kPa; for viscosity: Concentric cylinders viscometry; for mass density: Vibrating tube method

CCCCCCCCCCCC [dodecane]
[1]
Conditions | mass density [kg/m3] | speed of sound [m/s] | surface tension liquid-gas [mN/m] | viscosity [mPa·s]
293.15 K | 748.79 | 1297.9 | – | 1.47
294.1 K | – | – | 25.1 | –
303.15 K | 741.54 | 1259.6 | – | 1.24
313.15 K | 734.25 | 1221.9 | – | 1.06
323.15 K | 726.94 | 1184.7 | – | 0.916
333.15 K | 719.59 | 1148 | – | 0.801
343.15 K | 712.2 | – | – | 0.706
353.15 K | 704.7 | – | – | 0.627
363.15 K | 697.2 | – | – | 0.562
373.15 K | 689.6 | – | – | 0.506

CCCCCCCCCCCCCC [tetradecane]
[1]
Conditions | mass density [kg/m3] | speed of sound [m/s] | surface tension liquid-gas [mN/m] | viscosity [mPa·s]
293.15 K | 762.71 | 1331.2 | – | 2.3
294.6 K | – | – | 26.2 | –
303.15 K | 755.65 | 1293.6 | – | 1.88
313.15 K | 748.58 | 1256.4 | – | 1.56
323.15 K | 741.5 | 1220.1 | – | 1.32
333.15 K | 734.4 | 1184.1 | – | 1.13
343.15 K | 727.5 | – | – | 0.98
353.15 K | 720.3 | – | – | 0.858
363.15 K | 713.1 | – | – | 0.76
373.15 K | 705.8 | – | – | 0.679

CCCCc1ccccc1 [butylbenzene] + CCCCCCCCCCCCCCCCC
[2], x1 = 1
Conditions | mass density [kg/m3] | speed of sound [m/s] | viscosity [mPa·s]
303.15 K | 852.49 | 1314.9 | 0.91
313.15 K | 844.43 | 1276.6 | 0.801
323.15 K | 836.34 | 1238.7 | 0.713
333.15 K | 828.21 | 1201.4 | 0.636
343.15 K | 819.9 | – | 0.571
353.15 K | 811.7 | – | 0.516
363.15 K | 803.4 | – | 0.469
373.15 K | 795 | – | 0.43

CCCCc1ccccc1 [butylbenzene]
[1]
Conditions | mass density [kg/m3] | speed of sound [m/s] | surface tension liquid-gas [mN/m] | viscosity [mPa·s]
293.15 K | 860.51 | 1353.7 | – | 1.05
294.2 K | – | – | 29.1 | –
303.15 K | 852.49 | 1314.9 | – | 0.91
313.15 K | 844.43 | 1276.6 | – | 0.801
323.15 K | 836.34 | 1238.7 | – | 0.713
333.15 K | 828.21 | 1201.4 | – | 0.636
343.15 K | 819.9 | – | – | 0.571
353.15 K | 811.7 | – | – | 0.516
363.15 K | 803.4 | – | – | 0.469
373.15 K | 795 | – | – | 0.43

CCCCCCCCCCCCCCCC [hexadecane] + CCCCc1ccccc1
[2], x2 = 0
Conditions | mass density [kg/m3] | speed of sound [m/s] | viscosity [mPa·s]
293.15 K | 773.52 | 1357.3 | 3.45
303.15 K | 766.58 | 1320 | 2.74
313.15 K | 759.66 | 1283.4 | 2.22
323.15 K | 752.74 | 1247.5 | 1.84
333.15 K | 745.82 | 1212.1 | 1.55
343.15 K | 738.8 | – | 1.32
353.15 K | 731.9 | – | 1.14
363.15 K | 724.9 | – | 1
373.15 K | 717.8 | – | 0.887

CCCCCCCCCCCCCCCCC [heptadecane]
[1]
Conditions | mass density [kg/m3] | speed of sound [m/s] | viscosity [mPa·s]
303.15 K | 771.02 | 1330.9 | 3.25
313.15 K | 764.16 | 1294.5 | 2.61
323.15 K | 757.3 | 1258.8 | 2.14
333.15 K | 750.45 | 1223.8 | 1.79
343.15 K | 743.7 | – | 1.52
353.15 K | 736.8 | – | 1.3
363.15 K | 729.8 | – | 1.14
373.15 K | 723 | – | 1

CCCCCCCCCC [decane]
[1]
Conditions | mass density [kg/m3] | speed of sound [m/s] | surface tension liquid-gas [mN/m] | viscosity [mPa·s]
293.15 K | 729.88 | 1253.8 | – | 0.922
294.6 K | – | – | 23.8 | –
303.15 K | 722.31 | 1214.5 | – | 0.794
313.15 K | 714.69 | 1175.7 | – | 0.693
323.15 K | 707.02 | 1137.3 | – | 0.615
333.15 K | 699.29 | 1099.3 | – | 0.545
343.15 K | 691.5 | – | – | 0.486
353.15 K | 683.6 | – | – | 0.436
363.15 K | 675.6 | – | – | 0.396
373.15 K | 667.5 | – | – | 0.362

CCCCCCCCCC [decane] + CCCCc1ccccc1
[2], x2 = 0
Conditions | mass density [kg/m3] | speed of sound [m/s] | viscosity [mPa·s]
293.15 K | 729.88 | 1253.8 | 0.922
303.15 K | 722.31 | 1214.5 | 0.794
313.15 K | 714.69 | 1175.7 | 0.693
323.15 K | 707.02 | 1137.3 | 0.615
333.15 K | 699.29 | 1099.3 | 0.545
343.15 K | 691.5 | – | 0.486
353.15 K | 683.6 | – | 0.436
363.15 K | 675.6 | – | 0.396
373.15 K | 667.5 | – | 0.362

CCCCCCCCCCCCCC [tetradecane] + CCCCc1ccccc1
[2], x2 = 0
Conditions | mass density [kg/m3] | speed of sound [m/s] | viscosity [mPa·s]
293.15 K | 762.71 | 1331.2 | 2.3
303.15 K | 755.65 | 1293.6 | 1.88
313.15 K | 748.58 | 1256.4 | 1.56
323.15 K | 741.5 | 1220.1 | 1.32
333.15 K | 734.4 | 1184.1 | 1.13
343.15 K | 727.5 | – | 0.98
353.15 K | 720.3 | – | 0.858
363.15 K | 713.1 | – | 0.76
373.15 K | 705.8 | – | 0.679

CCCCCCCCCCCC [dodecane] + CCCCc1ccccc1
[2], x2 = 0
Conditions | mass density [kg/m3] | speed of sound [m/s] | viscosity [mPa·s]
293.15 K | 748.79 | 1297.9 | 1.47
303.15 K | 741.54 | 1259.6 | 1.24
313.15 K | 734.25 | 1221.9 | 1.06
323.15 K | 726.94 | 1184.7 | 0.916
333.15 K | 719.59 | 1148 | 0.801
343.15 K | 712.2 | – | 0.706
353.15 K | 704.7 | – | 0.627
363.15 K | 697.2 | – | 0.562
373.15 K | 689.6 | – | 0.506

CCCCCCCCCCCCCCCC [hexadecane]
[1]
Conditions | mass density [kg/m3] | speed of sound [m/s] | surface tension liquid-gas [mN/m] | viscosity [mPa·s]
293.15 K | 773.52 | 1357.3 | – | 3.45
294.8 K | – | – | 27.4 | –
303.15 K | 766.58 | 1320 | – | 2.74
313.15 K | 759.66 | 1283.4 | – | 2.22
323.15 K | 752.74 | 1247.5 | – | 1.84
333.15 K | 745.82 | 1212.1 | – | 1.55
343.15 K | 738.8 | – | – | 1.32
353.15 K | 731.9 | – | – | 1.14
363.15 K | 724.9 | – | – | 1
373.15 K | 717.8 | – | – | 0.887
